From patent US5624673A, “Cosmetic or pharmaceutical composition containing a prunella extract” (priority 1993, dated 1997)
Where “and” joins values, the source holds several entries; their conditions need not be identical. Identical values can stand only once.

Tested on: erythema caused by ultraviolet
Experiment: Anti-inflammatory activity on the erythema caused by ultraviolet
Format: in vivo, Dunkin Hartley guinea-pigs
Details: 1% in hydrocerine
Description: This is investigated using 41 female Dunkin Hartley guinea-pigs weighing 400 to 450 g, divided into 6 groups of 6 and one group of 5 guinea-pigs.
For one week before the start of the experiment, the animals are kept at a temperature of 20° plus or minus 1° C. and at a hygrometry of 50% plus or minus 10% and with 12 h of light per day. On the day before the experiment, the animals are carefully shaved on the back using an AESCULAP shaver equipped with a 1/10 mm comb, and then shaved gently on both sides using a Braun razor. A depilating cream is subsequently applied (to a thickness of about 2 mm) and allowed to work for 15 min.
The cream is removed with a wooden spatula and the guinea-pigs are then rinsed with tepid water and dried.
The guinea-pigs then receive the same irradiation on both sides, the area of the irradiated regions being 2 cm^2. The right side receives the test product, the product being spread beyond the 2 cm^2 so as to make it possible to observe any redness which might be due to the product and which would mask an antiphlogistic effect. The left side receives the placebo.
Application of the placebo to the left side enables the effect of UV to be measured under the same conditions on the zones treated with the product and on the untreated zones. This also makes it possible to see any action of the placebo and to assess, in comparison with the placebo, the zone to which the product has been applied.
The products are applied immediately after irradiation and then every 2 h up to 6 h after irradiation.
The amount applied is not measured but is spread uniformly over the whole region (about 1 mg).
The irradiation device used consists of a Biotronic UV312-365 mercury lamp (Vilbert-Loumat). The device for measuring the UV energy, which consists of a photoelectric cell measuring the luminous power of the UV, is fixed to a support at the center of the irradiated zone. This cell is connected to a radiometer on which the desired energy--in this case 2.16 J/cm^2 of UVB (distance from guinea-pig to lamp=20 cm)--is programmed. The lamp switches off automatically once the total amount of energy has been emitted.
This irradiation causes an erythema equal to 3 plus or minus 0.5 (see scale) at 6 h.
20 min before irradiation, the animals are anesthetized with an intraperitoneal dose of 0.5 ml/kg of pentobarbital sodium.
Six hours after irradiation, the erythema in each region is evaluated macroscopically according to the following scale:
0 ............... no erythema
1 ............... slight but visible erythema
2 ............... clearly visible erythema
3 ............... substantial erythema
One guinea-pig with a score of 1 according to the above notation, one guinea-pig with a score of 2 and one guinea-pig with a score of 3 are singled out after having been thoroughly evaluated as such, and are taken as standard references so that half-unit scores can be awarded. A guinea-pig not evaluated with 1 (standard reference) and not evaluated with 2 will be given a score of 1.5.
The results obtained are used to calculate the percentage activity according to the following formula: [formula]
The tested extracts according to the invention are in a concentration of 0.2% by weight in the gel. The indomethacin is in a concentration of 1% in the hydrocerine.

COc1ccc2c(c1)c(CC(=O)O)c(C)n2C(=O)c1ccc(Cl)cc1 [Indomethacin, indomethacin]
difference (UV+placebo)-(UV+product), individual animal: 2.5 and 2 and 3
Erythema score, product side (individual animal) (6 h after UVB 2.16 J/cm^2, scale 0-3): 0.5 and 1 and 0
Erythema score, product side, mean (SD 0.41, placebo mean 2.9, significant at 0.1% (Student t 11.18)): 0.4
difference (UV+placebo)-(UV+product), mean (SD 0.5): 2.5
protection (percentage activity) (significant at 0.1%): 86.2%
